Laboratory results: patent publication US20260274904A1, “ANTIMICROBIAL NCR2 PEPTIDES” (Donald Danforth Plant Science Center, priority 2019, published 2026)
≈ marks a conversion by molar mass, not a printed value. Where a SMILES comes first, the peptide text is derived from it.

Key:
[1] = Protein-phospholipid overlay assay (PIP Strips); details: protein-lipid overlay, 1 μg/ml peptide, 100 pmol lipid per spot
Description: (§2) Briefly, lipid strips were blocked with 10 mL of blocking buffer, PBS-T/3% fat free BSA for 12-16 h at 4° C. with gentle agitation. […] After hybridization, protein solution was discarded and the strips were then washed with PBS-T three times with gentle agitation for 20 minutes each for 1 hour at room temperature. […] The lipid strips were washed with PBS-T two times with gentle agitation, for 15 minutes each wash, at room temperature. HRP-conjugated Mouse Anti-Rabbit IgG secondary antibody (GenScript Cat no A01827) diluted 1:4000 in blocking buffer was added to the lipid strips and incubated for 60 minutes at 4° C. After two washes with PBS-T, chemiluminescence was detected using SuperSignal® West Pico PLUS Sensitivity substrate kit (Thermo Scientific, Cat no: 34080 following the manufacturer's protocol.

F. virguliforme [2] = assay: Resazurin cell viability assay; type: cell-based, Fusarium virguliforme
Description: (§1) The antifungal and anti-oomycete activity was conducted as described previously (Spelbrink et al. 2004; Sagaram et al. 2011; Velivelli et al. 2018) with minor modifications. The antifungal and anti-oomycete activity of NCR peptides were determined in an in vitro assay using 96-well microtiter plates. Fifty microliters of each protein dilution (0, 0.1, 0.3, 0.7, 1.5, 3 and 6 μM) was added to each well of the microtiter plate containing 50 μL of (zoo)spore suspension prepared in 2×SFM at a final concentration of 10^5 (zoo)spores/ml. The plates were incubated at room temperature and the quantitative fungal growth inhibition was estimated by measuring the absorbance at 595 nm using a Tecan Infinite M200 Pro (Tecan Systems Inc., San Jose, CA) microplate reader at 48 hours. The fungal/oomycete cell viability/cell killing was determined by the resazurin cell viability assay. After incubation at 48 hours, 10 μl of 0.1% resazurin solution was added to each well and re-incubated overnight. A change from blue to pink color indicates reduction of resazurin and cell viability.

[3] = Protein-phospholipid overlay assay (PIP Strips); details: protein-lipid overlay, 1 μg/ml peptide, 100 pmol lipid per spot; remark: listed apart in the source
Description: as §2

P. capsici = assay: Resazurin cell viability assay; type: cell-based, Phytophthora capsici
[4] = Protein-phospholipid overlay assay (PIP Strips); details: protein-lipid overlay, 1 μg/ml peptide, 100 pmol lipid per spot; remark: listed apart in the source
Description: as §2

F. virguliforme [5] = details: 48 h
F. oxysporum [6] = details: 48 h
F. oxysporum [7] = assay: Resazurin cell viability assay; type: cell-based, Fusarium oxysporum
Description: as §1

[8] = Protein-phospholipid overlay assay (PIP Strips); details: protein-lipid overlay, 1 μg/ml peptide, 100 pmol lipid per spot; remark: listed apart in the source
Description: as §2

Botrytis cinerea [9] = assay: Detached lettuce leaf infection assay (in planta antifungal activity); type: in vivo; details: detached iceberg lettuce leaves, peptide 3, 6, and 12 μM drop inoculated, 48 hours
[10] = tested on: Phytophthora capsici LT263; details: 48 h
Botrytis cinerea [11] = details: 48 h
[12] = Protein-phospholipid overlay assay (PIP Strips); details: protein-lipid overlay, 1 μg/ml peptide, 100 pmol lipid per spot; remark: listed apart in the source
Description: as §2

[13] = Protein-phospholipid overlay assay (PIP Strips); details: protein-lipid overlay, 1 μg/ml peptide, 100 pmol lipid per spot; remark: listed apart in the source
Description: as §2

[14] = tested on: Fusarium graminearum PH-1; type: cell-based; details: F. graminearum, absorbance at 595 nm at 48 hours
[15] = Protein-phospholipid overlay assay (PIP Strips); details: protein-lipid overlay, 1 μg/ml peptide, 100 pmol lipid per spot; remark: listed apart in the source
Description: as §2

[16] = Protein-phospholipid overlay assay (PIP Strips), overall; details: protein-lipid overlay, 1 μg/ml peptide, 100 pmol lipid per spot
Description: as §2

[17] = Protein-phospholipid overlay assay (PIP Strips); details: protein-lipid overlay, 1 μg/ml peptide, 100 pmol lipid per spot; remark: listed apart in the source
Description: as §2

F. graminearum = type: cell-based, Fusarium graminearum

## CC[C@H](C)[C@H](NC(=O)[C@H](CCCNC(=N)N)NC(=O)[C@H](CCCNC(=N)N)NC(=O)[C@H](CCCNC(=N)N)NC(=O)[C@@H](NC(=O)[C@H](CS)NC(=O)[C@H](Cc1ccc(O)cc1)NC(=O)CNC(=O)[C@H](CCCCN)NC(=O)[C@H](CCCNC(=N)N)NC(=O)[C@H](CS)NC(=O)[C@H](CCCNC(=N)N)NC(=O)[C@H](C)NC(=O)[C@H](CCCNC(=N)N)NC(=O)[C@H](Cc1ccc(O)cc1)NC(=O)[C@H](CC(N)=O)NC(=O)[C@H](CCCCN)NC(=O)[C@@H](NC(=O)[C@@H](NC(=O)[C@H](CO)NC(=O)[C@H](CS)NC(=O)[C@H](CCC(=O)O)NC(=O)[C@H](CCCCN)NC(=O)[C@H](CC(=O)O)NC(=O)[C@H](CO)NC(=O)[C@@H](NC(=O)[C@H](CS)NC(=O)[C@@H]1CCCN1C(=O)[C@H](CCCCN)NC(=O)[C@H](CO)NC(=O)[C@H](CC(C)C)NC(=O)[C@H](CCC(N)=O)NC(=O)[C@@H](NC(=O)[C@H](Cc1ccccc1)NC(=O)[C@H](C)N)[C@@H](C)CC)[C@@H](C)CC)[C@@H](C)CC)C(C)C)C(C)C)C(=O)N[C@@H](CCCNC(=N)N)C(=O)O [NCR2] (H-AFIQLSKPCISDKECSIVKNYRARCRKGYCVRRRIR-OH; N-terminus and C-terminus assumed)
[1]
  binding to PI(4,5)P2: bound weakly
F. virguliforme [2]
  concentration at which cells were killed (resazurin assay): 3 µM
[3]
  binding to PI(5)P: bound weakly
P. capsici
  concentration of cell death (resazurin assay): 3 µM
[4]
  binding to PI(3)P: bound weakly
F. virguliforme [5]
  MIC: 3 µM (≈ 13 µg/mL)
F. oxysporum [6]
  IC50: 500 nM
F. oxysporum [7]
  concentration at which cells were killed (resazurin assay): 1.5 µM
[8]
  binding to phosphatidic acid (PA): bound weakly
Botrytis cinerea [9]
  size of disease lesions caused by Botrytis cinerea: smaller lesions compared to no peptide control
[10]
  IC50: 2000 nM
  MIC: 3 µM (≈ 13 µg/mL)
Botrytis cinerea [11]
  IC50: 1500 nM
  MIC: 2 to 3 µM
[12]
  binding to PI(3,4,5)P3: bound weakly
[13]
  binding to PI(4)P: bound weakly
[14]
  IC50: 1500 to 2000 nM
[15]
  binding to PI(3,4)P2: bound weakly
[16]
  binding to phospholipids (overall): bind to multiple phospholipids
[17]
  binding to PI(3,5)P2: strongly binds
F. graminearum
  concentration at which cells were killed (resazurin assay): 3 µM
